Measured values reported in ChEMBL document CHEMBL2434896, “Carbonic anhydrase inhibitors. Synthesis of heterocyclic 4-substituted pyridine-3-sulfonamide derivatives and their inhibition of the human cytosolic isozymes I and II and transmembrane tumor-associated isozymes IX and XII” (Eur J Med Chem, 2013).
Activity calls are given as the source filed them. The calls are words filed in the database; no cut-off is given here.

What was measured:
SNB-19 = assay: Growth inhibition of human SNB19 cells at 10 uM after 48 hrs by sulforhodamine B assay; assay type: functional; conditions: for inhibition of growth at 10 µM: SNB-19, 48 h, read-out: GI
SF-539 = assay: Growth inhibition of human SF539 cells at 10 uM after 48 hrs by sulforhodamine B assay; assay type: functional; conditions: for inhibition of growth at 10 µM: SF-539, 48 h, read-out: GI
SF-295 = assay: Growth inhibition of human SF295 cells at 10 uM after 48 hrs by sulforhodamine B assay; assay type: functional; conditions: for inhibition of growth at 10 µM: SF-295, 48 h, read-out: GI
SF-268 = assay: Growth inhibition of human SF268 cells at 10 uM after 48 hrs by sulforhodamine B assay; assay type: functional; conditions: for inhibition of growth at 10 µM: SF-268, 48 h, read-out: GI
HCC 2998 = assay: (§1) Growth inhibition of human HCC2998 cells at 10 uM after 48 hrs by sulforhodamine B assay; assay type: functional
NCI-H460 = assay: Growth inhibition of human NCI-H460 cells at 10 uM after 48 hrs by sulforhodamine B assay; assay type: functional
NCI-H226 = assay: Growth inhibition of human NCI-H226 cells at 10 uM after 48 hrs by sulforhodamine B assay; assay type: functional; conditions: for inhibition of growth at 10 µM: NCI-H226, 48 h, read-out: GI
[1] = (§2) Growth inhibition of human EKVX cells at 10 uM after 48 hrs by sulforhodamine B assay; assay type: functional; conditions: read-out: GI
Carbonic anhydrase 9 = Carbonic anhydrase 9 (Homo sapiens, UniProt Q16790); assay: Inhibition of human carbonic anhydrase 9 after 15 mins by stopped flow CO2 hydration assay
[2] = Growth inhibition of human Hs 578T cells at 10 uM after 48 hrs by sulforhodamine B assay; assay type: functional; conditions: read-out: GI
UO-31 = assay: Growth inhibition of human UO31 cells at 10 uM after 48 hrs by sulforhodamine B assay; assay type: functional; conditions: UO-31, 48 h, read-out: GI
CAKI-1 = assay: Growth inhibition of human CAKI-1 cells at 10 uM after 48 hrs by sulforhodamine B assay; assay type: functional; conditions: for inhibition of growth at 10 µM: CAKI-1, 48 h, read-out: GI
SK-OV-3 = assay: Growth inhibition of human SKOV3 cells at 10 uM after 48 hrs by sulforhodamine B assay; assay type: functional; conditions: for inhibition of growth at 10 µM: SK-OV-3, 48 h, read-out: GI
[3] = (§3) Growth inhibition of human NCI-ADR-RES cells at 10 uM after 48 hrs by sulforhodamine B assay; assay type: functional; conditions: read-out: GI
UACC-257 = assay: Growth inhibition of human UACC257 cells at 10 uM after 48 hrs by sulforhodamine B assay; assay type: functional
[4] = as §1; assay type: functional; conditions: HCC 2998, 48 h, read-out: GI
EKVX = assay: as §2; assay type: functional
NCI/ADR-RES = assay: as §3; assay type: functional

| SMILES | growth inhibition (GI) (SNB-19) | growth inhibition (GI) (SF-295) | growth inhibition (GI) (SF-268) | growth inhibition (GI) (HCC 2998) | growth inhibition (GI) (NCI-H460) | inhibition of growth at 10 µM (NCI-H226) | inhibition of growth at 10 µM [1] | Ki (Carbonic anhydrase 9) | inhibition of growth at 10 µM (UO-31) | inhibition of growth at 10 µM (CAKI-1) | growth inhibition (GI) (SK-OV-3) | inhibition of growth at 10 µM [3] | inhibition of growth at 10 µM (SF-539) | growth inhibition (GI) (NCI-H226) | growth inhibition (GI) (EKVX) | inhibition of growth at 10 µM (SK-OV-3) | growth inhibition (GI) (NCI/ADR-RES) | growth inhibition (GI) (UACC-257) | inhibition of growth at 10 µM (SNB-19) | inhibition of growth at 10 µM (SF-295) | other results |
| --- | --- | --- | --- | --- | --- | --- | --- | --- | --- | --- | --- | --- | --- | --- | --- | --- | --- | --- | --- | --- | --- |
| NS(=O)(=O)c1cnccc1N1CCN(c2ccccn2)CC1 | inactive | inactive | inactive | inactive | inactive | 5% | 1% | 113 nM | 11% | 10% | inactive | 6% |  |  |  |  |  |  |  |  | growth inhibition (GI) (SF-539): inactive; inhibition of growth at 10 µM [2]: 20%; inhibition of growth at 10 µM (UACC-257; UACC-257, 48 h, read-out: GI): 2% |
| CCc1cc(CC)n(-c2ccncc2S(N)(=O)=O)n1 | inactive | inactive | inactive |  | inactive |  |  | 31.7 nM | 8% | 1% |  |  | 4% | inactive | inactive | 6% | inactive | inactive |  |  | inhibition of growth at 10 µM [4]: 6% |
| NS(=O)(=O)c1cnccc1N1CCC(Cc2ccccc2)CC1 |  | inactive | inactive | inactive | inactive | 12% |  | 136 nM | 21% | 3% |  |  | 4% |  | inactive | 2% | inactive | inactive | 2% |  |  |
| NS(=O)(=O)c1cnccc1N1CCN(c2ccc(Cl)cc2)CC1 | inactive |  | inactive | inactive | inactive | 13% | 11% | 135 nM | 20% | 15% | inactive |  | 8% |  |  |  | inactive |  |  | 14% |  |
| Cc1ccc(C)c(N2CCN(c3ccncc3S(N)(=O)=O)CC2)c1 | inactive |  | inactive | inactive | inactive | 3% |  | 548 nM | 15% | 9% | inactive |  | 1% |  | inactive |  | inactive | inactive |  | 1% |  |
| NS(=O)(=O)c1cnccc1N1CCN(c2ncccn2)CC1 |  | inactive |  | inactive | inactive |  |  | 78.3 nM | 15% |  | inactive |  |  | inactive | inactive |  | inactive | inactive | 1% |  | growth inhibition (GI) (SF-539): inactive; inhibition of growth at 10 µM (SF-268): 5%; growth inhibition (GI) (CAKI-1): inactive |
| COc1ccccc1N1CCN(c2ccncc2S(N)(=O)=O)CC1 | inactive |  | inactive | inactive | inactive | 3% | 3% | 652 nM | 10% |  | inactive |  | 5% |  |  |  | inactive | inactive |  | 3% | growth inhibition (GI) (CAKI-1): inactive |
| NS(=O)(=O)c1cnccc1N1CCN(c2ccc(Cl)c(Cl)c2)CC1 |  |  |  |  |  | 28% | 30% | 341 nM | 31% | 36% |  | 25% | 16% |  |  | 8% |  |  | 5% | 41% | inhibition of growth at 10 µM (SF-268): 2%; inhibition of growth at 10 µM [4]: 17%; inhibition of growth at 10 µM (NCI-H460; NCI-H460, 48 h, read-out: GI): 16% |
| NS(=O)(=O)c1cnccc1N1CCN(Cc2ccc3c(c2)OCO3)CC1 |  | inactive | inactive | inactive | inactive |  |  | 89.4 nM | 13% |  | inactive | 3% | 2% | inactive | inactive |  |  | inactive | 3% |  | growth inhibition (GI) (CAKI-1): inactive |
